# Experimental data from patent publication US20040091949A1, “Method of screening drug acting on cell wall” (priority 2000, published 2004).
# How the values were obtained:
# [1] = system: AY-12 strain (membrane-type arming yeast); assay: GFP releasing effect of available antifungal agents, membrane-type arming yeast; assay type: cell-based, S. cerevisiae; settings: RPMIB medium protected for osmotic pressure, supernatant fluorescence, difference from control with no agent
# Protocol: (§1) The cultured yeast cells in the logarithmic growth phase (AY-2 strain or AY-12 strain) were collected, and various agents were allowed to act on the yeast cells. Fluorescence intensity of the culture supernatant was measured by using Cytofluor 2300 Fluorometer (Millipore, excitation=480 nm, emission=530 nm). The fluorescence intensity under treatment with each of various agents was shown in terms of a difference in fluorescence intensity compared with that of a control in which no agent was added.
# (§2) In order to ascertain whether or not the method of the present invention can be utilized for a screening of agents with a targeting site other than Kre6p, the GFP releasing effects in the AY-2 strain (wall-type arming yeast) and the AY-12 strain (membrane-type arming yeast) were compared under actions of available antifungal agents. The AY-2 strain cells and the AY-12 strain cells each cultured in a test tube were floated on a medium (RPMIB) protected for osmotic pressure, and each of the agents was allowed to act on the cells. After the culture, the fluorescence intensity of the supernatant was measured, and a difference from that of a control with no addition of the agent was calculated.
# [2] = system: AY-2 strain (wall-type arming yeast); assay: GFP releasing effect of available antifungal agents, wall-type arming yeast; assay type: cell-based, S. cerevisiae; settings: RPMIB medium protected for osmotic pressure, supernatant fluorescence, difference from control with no agent
# Protocol: as §1, §2
Molecule,GFP releasing effect [1],GFP releasing effect [2]
C[C@@H]1[C@H](O)[C@@H](C)/C=C/C=C/C=C/C=C/C=C/C=C/C=C/[C@H](O[C@@H]2O[C@H](C)[C@@H](O)[C@H](N)[C@@H]2O)C[C@@H]2O[C@](O)(C[C@@H](O)C[C@@H](O)[C@H](O)CC[C@@H](O)C[C@@H](O)CC(=O)O[C@H]1C)C[C@H](O)[C@H]2C(=O)O [Amphotericin B],Slight releasing effect,Slight releasing effect
OC(Cn1cncn1)(Cn1cncn1)c1ccc(F)cc1F [Fluconazole],Slight releasing effect,Slight releasing effect
CC[C@@H](C(=O)[C@@H](C)[C@@H](O)[C@H](C)[C@@H]1O[C@@H]([C@@H](CC)C(=O)O)CC[C@@H]1C)[C@H]1O[C@]2(C=C[C@@H](O)[C@]3(CC[C@@](C)([C@H]4CC[C@](O)(CC)[C@H](C)O4)O3)O2)[C@H](C)C[C@@H]1C [Salinomycin],Slight releasing effect,Slight releasing effect
Aculeacin A,almost no releasing effect,Marked GFP releasing effect
Tunicamycin,almost no releasing effect,Marked GFP releasing effect
